Measured values published in patent publication US20080214504A1, “Vitamin B6 Related Compounds and Methods for Recovery From Trauma” (MEDICURE INTERNATIONAL INC., priority 2004, published 2008).

Test system: patients scheduled for elective percutaneous coronary intervention (PCI) with high-risk features for periprocedural myocardial infarction
Assay: Randomized placebo-controlled study of P5P in patients undergoing elective PCI: recovery, length of hospitalization, time to discharge
Format: in vivo, human
Text: Selection of Study Population—The patients selected for this trial were patients scheduled for elective percutaneous coronary intervention (PCI) with high-risk features for periprocedural myocardial infarction, and who satisfied specific inclusion criteria as described in the next section. Patients to be included in this study were of either sex, >18 years of age and admitted to hospital for elective, single-vessel, non-urgent PCI. Patients must have presented with at least one of the following high-risk clinical criteria: • ACS with last chest pain episode (or ischemic equivalent) within 48 hours, • recent myocardial infarction (≦7 days) with return of cardiac markers, (CK, CK-MB, and troponin) to below upper normal limits, • angiographic evidence of reduced epicardial flow (TIMI<3), • angiographic evidence of thrombus, • left ventricular ejection fraction≦30%, or • saphenous vein graft lesion.
The following patients were not eligible for inclusion into the study: • Those having suffered a recent myocardial infarction with elevated cardiac markers (CK-MB, troponin T), that have not returned to below upper limits or normal; • Those with electrocardiographic evidence of left bundle branch block (LBBB), ventricular paced rhythm, or atrial fibrillation; • Those with a planned multivessel PCI or PCI of known total occlusion (TIMI grade 0); • Those with evidence of ongoing or active clinical instability including; sustained systolic blood pressure<90 mmHg, cardiogenic shock, acute pulmonary edema or severe congestive heart failure, suspected acute myocarditis, pericarditis, endocarditis, cardiac tamponade, suspected dissecting aortic aneurysm, hemodynamically significant valvular heart disease, hypertrophic cardiomyopathy, restrictive cardiomyopathy, or congenital heart disease; • Any contraindication to the PCI procedure or any of the standard concomitant therapies used during routine PCI (e.g. aspirin, clopidogrel, heparin, low molecular weight heparin, direct antithrombin inhibitors, platelet glycoprotein IIb/IIIa antagonists); • Patients who were currently enrolled in a clinical trial of an investigational drug or who have participated in a clinical trial for an investigational drug (a new chemical entity not registered for clinical use) within 30 days preceding entry into the study or who are due to enter such a trial during the study period; • Patients with clinically significant abnormal laboratory findings (within 2 weeks prior to PCI) including: ALT, AST, bilirubin, or Alk Phos>1.5×ULN, Serum creatinine>1.8 mg/dL or 159 μmol/L; • Patients with any other pathology such as cancer, mental illness etc., which in the opinion of the investigator, might put the patient at risk or confound the results of the trial; • Female patients who are pregnant, breast feeding or planning a pregnancy during the course of the study; and • Patients who are unable or unwilling to comply with the protocol or who are not expected to complete the study period.
Treatments Administered—Following baseline laboratory assessments, patients were randomized to placebo or P5P (a vitamin B6 related compound), administered as a 10 mg/kg oral dose, at least (4) hours prior to PCI, followed by 10 mg/kg orally divided in two daily doses for fourteen (14) days. If PCI was delayed for more than 12 hours after initial dosing, they continued with scheduled BID dosing. If the initial loading dose was administered prior to or at 12:00 PM on day 1 of randomization, then the patient received a second evening dose. If the initial loading dose was administered following 12:00 PM, then no further dosing was administered on day 1, and the patient was to begin the next dose in the morning of day 2. If a dose was missed for more than 24 hours, patients were to continue to take the study drug as scheduled without taking supplemental doses. The date, time and dosing of the first and last study drug dosing was recorded in the CRF. […]

[1] = P5P 10 mg/kg oral, N = 37 (3 missing)

SMILES: Cc1ncc(COP(=O)(O)O)c(C=O)c1O [P5P, pyridoxal-5′-phosphate]
- Time in hospital relative to placebo (3.3 days versus 7.0 days for placebo): half as long
- Length of hospitalization, Median (25th, 75th) (P5P 10 mg/kg oral at least 4 h prior to PCI, then 10 mg/kg/day for 14 days, N = 40): 1.0 (1.0, 3.0) days
- Length of hospitalization, Mean (S.D.) (P5P 10 mg/kg oral at least 4 h prior to PCI, then 10 mg/kg/day in two daily doses for 14 days, N = 40): 3.3 (5.5) days
- Time to discharge from initiation of PCI, Maximum (P5P 10 mg/kg oral, N = 37): 34.0 days
- Time to discharge from initiation of PCI, Minimum (P5P 10 mg/kg oral, N = 37): 1.0 days
- Time to discharge from initiation of PCI, Mean (S.D) [1]: 1.9 (5.4) days
- Time to discharge from initiation of PCI, Medium (25th, 75th) [1]: 1.0 (1.0, 1.0) days
- Length of hospitalization, Maximum (P5P 10 mg/kg oral, N = 40): 34.0 days
- Length of hospitalization, Minimum (P5P 10 mg/kg oral, N = 40): 0.0 days
- Number of days from initiation of PCI to discharge from hospital, shorter versus placebo (P5P versus placebo): 74%
- Time in hospital (placebo 7.0 days): 3.3 days
